Experimental findings from patent publication US20260325559A1, “Immune Activator Agent” (Oryza Oil & Fat Chemical Co., Ltd., priority 2023, published 2026) are described below.

Experiment [1] relates to CD4-positive helper T cells (human PBMCs cocultured with αMylc® cells). The experiment in a line: Mixed lymphocyte reaction (MLR), helper T cell proliferation induced by αMylc cells. The format is cell-based. The settings on record: 10 μM; αMylc cells treated 24 h, MLR coculture 7 days; N=3; FIG. 5. How it is done:
The test was conducted using a mixed lymphocyte reaction (MLR). In this method, αMylc® cells (derived from human peripheral blood) that had shown IL-6 production-promoting activity were treated with GlcCer[d18:2(4E,8Z)/18:0], GlcCer[t18:1(8Z)/20:0], GlcCer[d18:2(4E,8Z)/20:0], or GlcCer[d18:2(4E,8Z)/26:0] at concentrations of 1 or 10 μM for 24 hours.
During this period, peripheral blood mononuclear cells (PBMCs) isolated from human blood were labeled with the cell membrane-permeable dye carboxyfluorescein diacetate succinimidyl ester (CFDA-SE) by incubation for 7 minutes. After staining, αMylc® cells and PBMCs were mixed at a 1:2 ratio (2×10^4 cells: 4×10^4 cells) and cocultured for 7 days.
Subsequently, the mean fluorescence intensity (MFI) of CD4 (APC-stained; helper T cell marker) and CFDA (cell proliferation indicator) was quantified by flow cytometry (N=3). In the present MLR assay, the activation index was defined as the proliferation rate of helper T cells, and the gating strategy used in this analysis is shown in FIG. 4.

For experiment [2], the system named is iMylc® cells (immature myeloid cells induced by differentiation from iPS cells), IL-6 production. The experiment in a line: IL-6 production activity in iMylc cells (immature dendritic cells). The class given is cell-based, human. The settings on record: 20 h, 37 °C, 5% CO2, DMSO 0.1% (v/v), ELISA of culture supernatant, FIG. 1. As for the experimental part: In this experiment, iMylc® cells (immature myeloid cells induced by differentiation from iPS cells) purchased from Mycen Technologies Inc. were used. These cells were cultured and subjected to evaluation tests using the dedicated maintenance medium for iMylc® cells provided by Mycen Technologies Inc.
The iMylc® cells were seeded into 96-well plates (1.0×10^4 cells/well/100 μL). After adding 100 μL/well of medium containing the test substance, the cells were incubated for 20 hours at 37 °C under 5% CO2. The final concentration of DMSO was adjusted to 0.1% (v/v). After incubation, the amount of IL-6 produced in the culture supernatant was measured using a commercially available kit (Human IL-6 ELISA MAX™ Deluxe Set, BioLegend) in accordance with the manufacturer's instructions.
(In general: In an ELISA, binding on a coated surface is turned into a signal by an enzyme label.)

Consider `CCCCCCCCC/C=C\CC/C=C/[C@@H](O)[C@H](CO[C@@H]1O[C@H](CO)[C@@H](O)[C@H](O)[C@H]1O)NC(=O)[C@H](O)CCCCCCCCCCCCCCCCCCCCCCCC` [GlcCer[d18:2(4E,8Z)/26:0]], for which the T-cell proliferation rate entry in experiment [1] is “a significant increase in T-cell proliferation rate”. For the same compound, the IL-6 production entry in experiment [2] is reported as “significant activity”.

For `CCCCCCCCC/C=C\CCC[C@@H](O)[C@@H](O)[C@H](CO[C@@H]1OC(CO)[C@@H](O)[C@@H](O)C1O)NC(=O)[C@H](O)CCCCCCCCCCCCCCCCCC` (stereo partly shown) [GlcCer[t18:1(8Z)/20:0]], in experiment [2], the IL-6 production result is listed as “significant activity”.

Take `CCCCCCCCCCCCCCCCCCCCC(O)C(=O)N[C@@H](CO)[C@H](O)[C@H](O)CCCCCCCCCCCCCC` (stereo partly shown) [Cer[t18:0/22:0]]: the IL-6 production result in experiment [2] was “significant activity”.
